Article PMC3651043 (Biochemistry, 2013)

Key:
[1] = target: tKSI (ketosteroid isomerase from Comamonas testosteroni) (Comamonas testosteroni, UniProt P00947, D38N); test: biochemical
[2] = target: pKSI (ketosteroid isomerase from Pseudomonas putida) (Pseudomonas putida, UniProt P07445); test: intrinsic fluorescence quenching; type: binding
[3] = target: tKSI (ketosteroid isomerase from Comamonas testosteroni) (Comamonas testosteroni, UniProt P00947, D38A); test: intrinsic fluorescence quenching; type: binding
[4] = target: pKSI (ketosteroid isomerase from Pseudomonas putida) (Pseudomonas putida, UniProt P07445, D40A); test: intrinsic fluorescence quenching; type: binding
[5] = target: tKSI (ketosteroid isomerase from Comamonas testosteroni) (Comamonas testosteroni, UniProt P00947); test: intrinsic fluorescence quenching; type: binding
[6] = target: pKSI (ketosteroid isomerase from Pseudomonas putida) (Pseudomonas putida, UniProt P07445, D40N); test: biochemical
Chain of pKSI (ketosteroid isomerase from Pseudomonas putida) (Pseudomonas putida, UniProt P07445, D40N) (P07445 whole entry D40N): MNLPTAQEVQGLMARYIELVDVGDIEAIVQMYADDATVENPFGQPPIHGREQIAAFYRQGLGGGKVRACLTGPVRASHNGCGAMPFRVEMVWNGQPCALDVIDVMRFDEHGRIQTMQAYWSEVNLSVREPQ

Chain of pKSI (ketosteroid isomerase from Pseudomonas putida) (Pseudomonas putida, UniProt P07445, D40A) (P07445 whole entry D40A): as the sequence (P07445 whole entry D40N) above, with N40A counted along it
Chain of tKSI (ketosteroid isomerase from Comamonas testosteroni) (Comamonas testosteroni, UniProt P00947, D38A) (P00947 whole entry D38A): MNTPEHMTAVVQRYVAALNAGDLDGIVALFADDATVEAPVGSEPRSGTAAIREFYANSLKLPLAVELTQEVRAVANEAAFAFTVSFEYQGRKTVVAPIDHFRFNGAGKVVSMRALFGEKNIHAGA
Chain of pKSI (ketosteroid isomerase from Pseudomonas putida) (Pseudomonas putida, UniProt P07445) (P07445 whole entry): as the sequence (P07445 whole entry D40N) above, with N40D counted along it
Chain of tKSI (ketosteroid isomerase from Comamonas testosteroni) (Comamonas testosteroni, UniProt P00947, D38N) (P00947 whole entry D38N): as the sequence (P00947 whole entry D38A) above, with A38N counted along it
Chain of tKSI (ketosteroid isomerase from Comamonas testosteroni) (Comamonas testosteroni, UniProt P00947) (P00947 whole entry): as the sequence (P00947 whole entry D38A) above, with A38D counted along it

C[C@]12CCC(=O)C=C1CC[C@@H]1[C@@H]2CC[C@]2(C)C(=O)CC[C@@H]12 [4-androstene-3,17-dione]
Kd [1]: 15.9 µM | Kd [2]: 62.5 µM | Kd [3]: 0.909 µM | Kd [4]: 0.385 µM | Kd [5]: 62.5 µM | Kd [6]: 1.33 µM
